Source: patent US11319283B2, “Substituted cyclobutylbenzene compounds as indoleamine 2,3-dioxygenase (IDO) inhibitors” (MERCK SHARP & DOHME CORP., priority 2017, dated 2022)

Experiments:
TDO = biological target: T1, TDO (Homo sapiens, UniProt P48775); test: TDO Cellular Assay in Frozen SW48 Cells; assay type: cell-based; conditions: 300 uM L-tryptophan, about 48 hours, fluorescence readout
T1 construct: endogenous in cells; host or cells: SW48 cells (A2780 cells as control with minimal TDO activity)
T1 sequence (P48775 whole entry): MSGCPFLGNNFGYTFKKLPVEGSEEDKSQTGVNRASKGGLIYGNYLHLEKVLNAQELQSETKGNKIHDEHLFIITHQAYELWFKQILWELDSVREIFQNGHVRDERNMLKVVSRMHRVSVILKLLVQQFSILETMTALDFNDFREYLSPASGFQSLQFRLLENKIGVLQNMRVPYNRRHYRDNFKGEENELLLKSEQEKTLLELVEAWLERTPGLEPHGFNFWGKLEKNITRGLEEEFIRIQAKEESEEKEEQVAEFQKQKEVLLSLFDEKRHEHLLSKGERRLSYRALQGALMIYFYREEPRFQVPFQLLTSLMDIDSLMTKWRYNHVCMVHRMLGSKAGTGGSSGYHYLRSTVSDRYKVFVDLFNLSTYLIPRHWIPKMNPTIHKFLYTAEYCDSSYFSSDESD
Experimental: TDO Cellular Assay in Frozen SW48 Cells
SW48 cells were cultured in complete RPMI culture medium (90% RPMI, 10% heat-inactivated fetal bovine serum).
Compounds to be tested were serially diluted in ten 3-fold steps in DMSO starting from 10 mM DMSO stocks in Echo low volume plate(s). […] The cells were spun down at 350 g in a table top centrifuge for 5 minutes and suspended in same volume of RPMI assay medium. […] Sterile L-tryptophan (Sigma, Cat # T0254) was added to the cells with final concentration of 300 uM.
SW48 and A2780 cells were dispensed to the respective wells of 384-well assay plates containing the compounds. The plates were incubated for about 48 hours at a 37° C., 5% CO2 incubator. Afterwards, 12 μL of 0.5 M ethyl isonipecotate (Sigma Aldrich, Cat # E33505) in dimethyl sulfoxide were added into each well and the plates were sealed and incubated at 37° C. without CO2 overnight. The plates were centrifuged for 1 minute at 200×g. The resulting fluorescence was measured in a Spectramax plate reader (Molecular Devices) with a 400 nm excitation filter and a 510 nm emission filter.
The fluorescence intensity of each well was corrected for the background observed in wells with A2780 cells and was expressed as a fraction of the intensity observed in wells of SW48 cells and DMSO only. Potencies were calculated by linear least squares fit to the four parameter logistic IC50 equation.

IDO1 = IDO1 (Homo sapiens, UniProt P14902); test: IDO1 Cellular Assay in Hela Cells Stimulated with IFNγ; assay type: cell-based; parameters: endogenous in cells; host or cells: HeLa cells stimulated with IFNγ (100 ng/mL); conditions: Hela cells stimulated with IFNγ 100 ng/mL, 300 uM L-tryptophan, about 48 hours, fluorescence readout
Chain of IDO1 (P14902 whole entry): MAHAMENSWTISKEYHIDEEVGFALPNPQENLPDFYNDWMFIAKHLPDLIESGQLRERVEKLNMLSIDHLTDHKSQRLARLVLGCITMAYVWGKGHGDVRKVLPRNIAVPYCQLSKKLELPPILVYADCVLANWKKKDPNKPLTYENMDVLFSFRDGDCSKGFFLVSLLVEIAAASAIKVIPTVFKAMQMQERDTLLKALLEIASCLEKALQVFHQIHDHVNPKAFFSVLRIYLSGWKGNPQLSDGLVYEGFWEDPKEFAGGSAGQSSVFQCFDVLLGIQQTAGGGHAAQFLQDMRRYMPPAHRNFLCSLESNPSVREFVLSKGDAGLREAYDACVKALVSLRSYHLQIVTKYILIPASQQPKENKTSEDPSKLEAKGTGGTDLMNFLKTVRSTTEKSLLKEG
Experimental: IDO1 Cellular Assay in Hela Cells Stimulated with IFNγ
Hela cells were cultured in complete Hela culture medium (90% EMEM, 10% heat-inactivated fetal bovine serum) and expanded to about 1×10^9 cells. The cells were then collected and frozen down at 1×10^7 cells/vial in 1 mL frozen medium (90% complete Hela culture medium, 10% DMSO)
Compounds to be tested were serially diluted in ten 3-fold steps in DMSO starting from 10 mM DMSO stocks in Echo low volume plate(s).
Frozen Hela cells were thawed and transferred into Hela assay medium (99% complete Hela culture medium, 1% Pen/Strep) with 20 mL medium/vial of cells. The cells were spun down at 250 g in a table top centrifuge for 5 min and suspended in same volume of Hela assay medium. The cells were then counted and adjusted to a density of 2×10^5 cells/ml in Hela assay medium. Sterile L-tryptophan were added to the cells with final concentration of 300 uM L-tryptophan. A small aliquot (2 mL/plate) of Hela cells were set aside and were not treated with IFNγ, to serve as the Max-E control.
Hela cells with and without IFNγ were dispensed to the respective wells of 384-well assay plates containing the compounds. The plates were incubated for about 48 hours at a 37° C., 5% CO2 incubator. Afterwards, […] of 0.5 M methyl isonipecotate in dimethyl sulfoxide were added into each well and the plates were sealed and incubated at 37° C. without CO2 overnight. The plates were centrifuged for 1 min at 200×g. The resulting fluorescence was measured in a Spectramax plate reader (Molecular Devices) with a 400 nm excitation filter and a 510 nm emission filter.
Potencies were calculated by linear least squares fit to the four parameter logistic IC50 equation.

IC50 (TDO) [nM]	IC50 (IDO1) [nM]	Structure (SMILES)
≥ 10000	136	O=C(Nc1ccc(C2(NC(=O)c3ncccc3Cl)CCC2)cc1)c1cccc(Cl)c1 [Example 4, 3-chloro-N-(1-{4-[(3-chlorobenzene-1-carbonyl)amino]phenyl}cyclobutyl)pyridine-2-carboxamide]
≥ 10000	136	O=C(Nc1ccc(C2(NC(=O)c3cc(Cl)ccn3)CCC2)cc1)c1cccc(Cl)c1 [Example 5, 4-chloro-N-(1-{4-[(3-chlorobenzene-1-carbonyl)amino]phenyl}cyclobutyl)pyridine-2-carboxamide]
≥ 10000	12	CCCNC(=O)C1(c2ccc(NC(=O)c3cc(Cl)cc(Cl)c3)cc2)CCC1 [Example 80, 3,5-dichloro-N-{4-[1-(propylcarbamoyl)cyclobutyl]phenyl}benzamide]
	34	O=C(Nc1ccc(C2(C(=O)NC34CC(C3)C4)CCC2)cc1)c1cccc(Cl)c1 [Example 39, N-(4-{1-[(bicyclo[1.1.1]pentan-1-yl)carbamoyl]cyclobutyl}phenyl)-3-chlorobenzamide]
≥ 10000	4	O=C(Nc1ccc(C2(NC(=O)c3ccc(Cl)c(F)c3)CCC2)cc1)c1cccc(Cl)c1 [Example 8, 4-chloro-N-(1-{4-[(3-chlorobenzene-1-carbonyl)amino]phenyl}cyclobutyl)-3-fluorobenzamide]
≥ 10000	577	Cn1ccnc1C(=O)NC1(c2ccc(NC(=O)c3cccc(Cl)c3)cc2)CCC1 [Example 6, N-(1-{4-[(3-chlorobenzene-1-carbonyl)amino]phenyl}cyclobutyl)-1-methyl-1H-imidazole-2-carboxamide]
≥ 10000	709	O=C(Nc1ccc(C2(C(=O)NC3CN(CC(F)(F)F)C3)CCC2)cc1)c1cccc(Cl)c1 [Example 44, 3-chloro-N-[4-(1-{[1-(2,2,2-trifluoroethyl)azetidin-3-yl]carbamoyl}cyclobutyl)phenyl]benzamide]
≥ 10000	24	CCOC1CC1NC(=O)C1(c2ccc(NC(=O)c3cccc(Cl)c3)cc2)CCC1 (stereo not shown) [Example 36, 3-chloro-N-(4-{1-[(2-ethoxycyclopropyl)carbamoyl]cyclobutyl}phenyl) benzamide]
	27	O=C(Nc1ccc(C2(C(=O)NCC3CC3)CCC2)cc1)c1cccc(Cl)c1 [Example 48, 3-chloro-N-(4-{1-[(cyclopropylmethyl)carbamoyl]cyclobutyl}phenyl)benzamide]
≥ 10000	427	O=C(Nc1ccc(C2(C(=O)N[C@@H]3CCOC3)CCC2)cc1)c1cccc(Cl)c1 [Example 52, 3-chloro-N-[4-(1-{[(3R)-oxolan-3-yl]carbamoyl}cyclobutyl)phenyl]benzamide]
	500	CCCNC(=O)C1(c2ccc(NC(=O)c3nnsc3C)cc2)CCC1 [Example 54, 5-Methyl-N-(4-(1-(propylcarbamoyl)cyclobutyl)phenyl)-1,2,3-thiadiazole-4-carboxamide]
≥ 10000	89	CCO[C@H]1C[C@H]1NC(=O)C1(c2ccc(NC(=O)c3cccc(Cl)c3)cc2)CC(F)(F)C1 [Example 66, 3-chloro-N-[4-(1-{[(1R,2S)-2-ethoxycyclopropyl]carbamoyl}-3,3-difluorocyclobutyl)phenyl] benzamide]
≥ 10000	3	O=C(Nc1ccc(C2(C(=O)Nc3ccc(Cl)cc3)CCC2)cc1)c1cccc(Cl)c1 [Example 24, 3-chloro-N-(4-{1-[(4-chlorophenyl)carbamoyl]cyclobutyl}phenyl) benzamide]
≥ 10000	207	CCO[C@H]1C[C@@H]1NC(=O)C1(c2ccc(NC(=O)c3cccc(Cl)c3)cc2)CC(F)(F)C1 [Example 67, 3-chloro-N-[4-(1-{[(lS,2S)-2-ethoxycyclopropyl]carbamoyl}-3,3-difluorocyclobutyl)phenyl] benzamide]
≥ 10000	117	O=C(Nc1ccc(C2(C(=O)NCCC(F)(F)F)CCC2)cc1F)c1cccc(Cl)c1 [Example 82, 3-Chloro-N-(2-fluoro-4-(1-((3,3,3-trifluoropropyl)carbamoyl)cyclobutyl)phenyl)benzamide]
≥ 10000	11	CCCNC(=O)C1(c2ccc(NC(=O)c3cc(F)cc(Cl)c3)cc2)CCC1 [Example 79, 3-chloro-5-fluoro-N-{4-[1-(propylcarbamoyl)cyclobutyl]phenyl}benzamide]
≥ 10000	126	O=C(Nc1ccc(C2(C(=O)NCC(F)(F)F)CCC2)cc1)c1cccc(Cl)c1 [Example 49, 3-chloro-N-(4-{1-[(2,2,2-trifluoroethyl)carbamoyl]cyclobutyl}phenyl) benzamide]
	151	CCNC(=O)C1(c2ccc(NC(=O)c3cccc(Cl)c3)cc2)CCC1 [Example 50]
≥ 10000	14	O=C(Nc1ccc(C2(NC(=O)c3ccc(F)c(F)c3)CCC2)cc1)c1cccc(Cl)c1 [Example 10, N-(1-{4-[(3-chlorobenzene-1-carbonyl)amino]phenyl}cyclobutyl)-3,4-difluorobenzamide]
≥ 10000	35	CC1CC1NC(=O)C1(c2ccc(NC(=O)c3cccc(Cl)c3)cc2)CCC1 (single isomer, unassigned) [Example 22, 3-chloro-N-(4-(1-((2-methylcyclopropyl)carbamoyl)cyclobutyl)phenyl)benzamide]
	13	CC1CC1NC(=O)C1(c2ccc(NC(=O)c3cccc(Cl)c3)cc2)CCC1 (stereo not shown) [Example 46, 3-chloro-N-(4-{1-[(2-methylcyclopropyl)carbamoyl]cyclobutyl}phenyl) benzamide]
	660	CC(NC(=O)C1(c2ccc(NC(=O)c3cccc(Cl)c3)cc2)CCC1)C1CCCO1 (stereo not shown) [Example 43, 3-chloro-N-[4-(1-{[1-(oxolan-2-yl)ethyl]carbamoyl}cyclobutyl)phenyl]benzamide]
	923	CCCNC(=O)C1(c2ccc(NC(=O)c3cc(C)no3)cc2)CCC1 [Example 56, 3-methyl-N-{4-[1-(propylcarbamoyl)cyclobutyl]phenyl}-1,2-oxazole-5-carboxamide]
	613	CCCNC(=O)C1(c2ccc(NC(=O)c3ccc(CN)cc3)cc2)CCC1 [Example 55, 4-(aminomethyl)-N-{4-[1-(propylcarbamoyl)cyclobutyl]phenyl} benzamide]
	26	O=C(Nc1ccc(C2(C(=O)NCCC(F)(F)F)CCC2)cc1)c1cccc(Cl)c1 [Example 47, 3-chloro-N-(4-{1-[(3,3,3-trifluoropropyl)carbamoyl]cyclobutyl}phenyl) benzamide]
	48	CCCC(=O)NC1(c2ccc(NC(=O)c3cccc(Cl)c3)cc2)CCC1 [Example 1, N-(4-(1-Butyramidocyclobutyl)phenyl)-3-chlorobenzamide]
	31	O=C(Nc1ccc(C2(C(=O)NC3CC(F)(F)C3)CCC2)cc1)c1cccc(Cl)c1 [Example 38, 3-chloro-N-(4-{1-[(3,3-difluorocyclobutyl)carbamoyl]cyclobutyl}phenyl) benzamide]
	101	CC(NC(=O)C1(c2ccc(NC(=O)c3cccc(Cl)c3)cc2)CCC1)C1CC1 (stereo not shown) [Example 41, 3-chloro-N-(4-{1-[(1-cyclopropylethyl)carbamoyl]cyclobutyl}phenyl) benzamide]
	2010	CCCNC(=O)C1(c2ccc(NC(=O)c3cn4ncccc4n3)cc2)CCC1 [Example 58, N-{4-[1-(propylcarbamoyl)cyclobutyl]phenyl}imidazo[1,2-b]pyridazine-2-carboxamide]
	1710	CCCNC(=O)C1(c2ccc(NC(=O)c3coc(CC)n3)cc2)CCC1 [Example 57, 2-ethyl-N-{4-[1-(propylcarbamoyl)cyclobutyl]phenyl}-1,3-oxazole-4-carboxamide]
